Reference: patent US4826994A, “Production of substituted 1,3,4,9-tetrahydropyrano(3,4-B)indole-1-acetic acids” (American Home Products Corporation, priority 1988, dated 1989)

Tests used:
[1] = Preventative Adjuvant Edema (acute anti-inflammatory effect in rats); format: in vivo, Male Sprague Dawley rats; details: for Preventative Adjuvant Edema, percent inhibition / inhibition in vivo at 25 mg/kg: 25 mg/kg, p.o.; for inhibition in vivo at 25 mg/kg: read-out: Preventative Adjuvant Edema, percent inhibition
Protocol: This test is a primary screen for anti-inflammatory drugs.
Male Sprague Dawley rats (180-200 g) are used. The animals have free access to water but food is withdrawn 18 hours before testing.
Drug Preparations and Administration:
Freund's complete adjuvant is prepared by suspending 5 mg of killed and dried Mycobacterium butyricum (Difco) in 1 mL mineral oil. The test compounds are dissolved, of suspended in 0.5% Tween 80 in distilled water according to their solubility. For primary screening all drugs are administered by gastric lavage at the arbitrary dosage of 25 mg/kg, p.o. in a volume of 0.5 mL/100 g body weight to groups of 10 animals.
The method is essentially that described by Wax et al, J. Pharmacol. Exp. Ther., 192, 166-171 (1975). Groups of rats are injected intradermally in the left hind paw with 0.1 mL of Freund's complete adjuvant. The test compound or vehicle is administered immediately before the adjuvant, 24 hours and 48 hours after the adjuvant (days 0, 1 and 2). The injected hind paw volume is measured before the injection of adjuvant and 24 hrs. after the last drug administration (day 3) by means of a plethysmometer (Buxco Electronics Inc.). The difference between the hind paw volume on day 0 and day 3 represents the edema volume. Etodolac (25 mg/kg, p.o.) is included as a positive control.
The mean edema volume (expressed as mL±SEM) is calculated for each group and the percentage protection conferred by the drug is calculated: [formula] where c is the mean edema volume for the vehicle-treated (0.5% Tween 80 in distilled water) controls and t is the mean edema volume for the drug treated group.

[2] = Drug Effects on Phenylbenzoquinone-induced Writhing in Mice; format: in vivo, Male Swiss albino mice; details: for inhibition in vivo at 25 mg/kg / ED50: Mus musculus, po; for inhibition in vivo at 25 mg/kg: read-out: Phenylquinone Writhing in Mice, percent inhibition; for ED50: value in parentheses, read-out: Phenylquinone Writhing in Mice, ED50
Protocol: A further test used to determine the utility of the compounds of the present invention is designated: Drug Effects on Phenylbenzoquinone-induced Writhing in Mice
The objective of this test is to determine the ability of test drugs to inhibit the nociceptive (pain) response of mice injected with a chemical irritant. This test is a primary screen for both peripheral and centrally acting analgesic drugs.
Male Swiss albino mice (15-25 g). The animals are fasted for 18 hours prior to use but have free access to water.
(§1) Drug Preparation and Administration:
Drugs are dissolved or suspended according to their solubility in 0.5% Tween 80 in distilled water. They are administered by gastric gavage in a volume of 5 mL/kg. For primary screening all drugs are administered at the arbitrary dosage of 25 mg/kg, p.o. to a group of 10 mice.
A modification of the method of Siegmund et al, Proc. Soc. Exp. Biol. Med., 95, 729-731 (1957) is used. Groups of 5 mice are dosed with the test compound or vehicle control. Sixty minutes later the animals are injected i.p. with 0.3 mL/20 g body weight of a 0.02% solution of phenylbenzoquinone (PBQ; 2-phenyl-1,4-benzoquinone) and placed in individual observation boxes. The number of writhing or abdominal squirming movements made by each mouse during the following 15 min. period is counted. The experiment is repeated with another group of 5 mice and the mean number of writhes per mouse for a group of 10 mice is calculated.
Drug treated and vehicle-treated control groups are compared and the percentage protection conferred by the drug is calculated: [formula] where c=mean number of writhes in the control group where t=mean number of writhes in the test drug group

[3] = Randall Selitto Test in the Rat (pain threshold in inflamed paw); format: in vivo, Male Sprague Dawley rats; details: Rattus norvegicus, po, rats, 1 hour after dosing; value in parentheses; read-out: Randall Selitto Test in the Rat, ED50 (dose which causes analgesia in 50% of the animals)
Source text: An additional test used to determine the utility of the compounds of the present invention is designated: Randall Selitto Test in the Rat
The objective of this test is to assess the potency of peripheral and central acting drugs in inhibiting the reaction of rats to painful stimulation applied to an inflamed paw.
Male Sprague Dawley rats (180-200 g) are used. The animals are fasted overnight prior to drug administration.
as §1
Freund's Complete Adjuvant (FCA) is prepared by suspending 5 mg killed and dried mycobacterium butyricum (Difco) in 1 mL mineral oil. The test compounds are dissolved or suspended in 0.5% Tween 80 in distilled water according to their solubility. They are administered by gastric gavage in a volume of 0.5 mL/100 g body weight to groups of 10 animals.
Ten rats are used per group. The method is essentially that described by Randall and Selitto, Arch. Int. Pharmacodyn. 111, 409 (1957) and the apparatus which is used to apply pressure to the paw (Analgesi-meter for the rat paw, Ugo Basile, Comeria, Italy) is a modification of that described by Gilfoil et al, J. Pharmacol. 142, 1 (1963). The instrument is basically a device which exerts a force that increases at a constant rate. The force is continuously monitored by a pointer moving along a linear scale and is measured in grams. The inflammatory reaction is induced in the left hind paw of rats of injecting 0.1 mL of Freund's adjuvant intradermally. The test compound or vehicle is administered 24 hours after the adjuvant. The pain threshold (vocalization) is determined 1 hour later in the inflamed paw of the treated and control groups.
Presentation of Results and Criteria for Activity:
Each animal which has a reading 1.5 times greater than the mean reading of the control-group will be considered as responsive (having an analgesic effect) to treatment. The number of animals showing an analgesic effect is then determined in each group.
The ED50 (dose which causes analgesia in 50% of the animals) using at least 3 doses is then determined, by the method described in Litchfield and Wilcoxon, J. Pharmacol. Exp. Ther., 96, 99-113 (1949).

| Structure (SMILES) | inhibition in vivo at 25 mg/kg ([2]; 25 mg/kg, p.o.) [%] | inhibition in vivo at 25 mg/kg ([1]; Rattus norvegicus, po, 72 h) [%] | also measured |
| --- | --- | --- | --- |
| CCc1cccc2c3c([nH]c12)C(CC)(CC(=O)O)OCC3Cc1ccccc1 (single isomer, unassigned) [Example 4, 1,8-Diethyl-1,3,4,9-tetrahydro-4-(phenylmethyl)-pyrano[3,4-b]indole-1-acetic Acid] | 86 |  | Preventative Adjuvant Edema, percent inhibition [1]: 15%; ED50 [3]: 0.5 mg/kg |
| C=CCC1COC(CC)(CC(=O)O)c2[nH]c3c(CC)cccc3c21 (single isomer, unassigned) [Example 11, 1,8-diethyl-1,3,4,9-tetrahydro-4-(2-propenyl)-pyrano[3,4-b]indole-1-acetic acid] | 11 | 55 |  |
| C=CCC1COC(CC)(CC(=O)O)c2[nH]c3c(CCC)cccc3c21 (single isomer, unassigned) [Example 13, 1-ethyl-1,3,4,9-tetrahydro-4-(2-propenyl)-8-propyl-pyrano[3,4-b]indole-1-acetic acid] | 2 | 36 |  |
| C=CCC1COC(CC)(CC(=O)O)c2[nH]c3ccccc3c21 (single isomer, unassigned) [Example 14] | 21 | 46 |  |
| C=CCC1COC(CC)(CC(=O)O)c2[nH]c3ccccc3c21 (single isomer, unassigned) [Example 15] |  |  | Preventative Adjuvant Edema, percent inhibition [1]: 30%; Phenylquinone Writhing in Mice, percent inhibition ([2]; 25 mg/kg, p.o.): 25% |
| C=CCC1COC(CC)(CC(=O)O)c2[nH]c3c(C)c(Cl)ccc3c21 (single isomer, unassigned) [Example 17, 7-chloro-1-ethyl-1,3,4,9-tetrahydro-8-methyl-4-(2-propenyl)-pyrano[3,4-b]indole-1-acetic acid] | 11 | 44 |  |
| CCC1(CC(=O)O)OCC(Cc2ccccc2)c2c1[nH]c1c(C)c(Cl)ccc21 (single isomer, unassigned) [Example 20, 7-chloro-1-ethyl-1,3,4,9-tetrahydro-8-methyl-4-(phenylmethyl)-pyrano[3,4-b]indole-1-acetic acid] | 11 |  | Preventative Adjuvant Edema, percent inhibition [1]: 34% |
| CCC1(CC(=O)O)OCC(Cc2ccccc2)c2c1[nH]c1c(C)cccc21 (single isomer, unassigned) [Example 21, 1-ethyl-1,3,4,9-tetrahydro-8-methyl-4-(phenylmethyl)-pyrano[3,4-b]indole-1-acetic acid] | 11 | 40 |  |
| CCC1(CC(=O)O)OCC(Cc2ccccc2)c2c1[nH]c1c(Cl)ccc(C)c21 (single isomer, unassigned) [Example 23, 8-chloro-1-ethyl-1,3,4,9-tetrahydro-5-methyl-4-(phenylmethyl)-pyrano[3,4-b]indole-1-acetic acid] |  |  | Preventative Adjuvant Edema, percent inhibition [1]: 0%; ED50 [2]: 1.4 mg/kg |
| CCC1(CC(=O)O)OCC(Cc2ccccc2)c2c1[nH]c1c(Cl)ccc(C)c21 (single isomer, unassigned) [Example 24, 8-chloro-1-ethyl-1,3,4,9-tetrahydro-5-methyl-4-(phenylmethyl)-pyrano[3,4-b]indole-1-acetic acid] | 0 |  | Preventative Adjuvant Edema, percent inhibition [1]: 2% |
| CCC1(CC(=O)O)OCC(Cc2ccccc2)c2c1[nH]c1ccc(Br)cc21 (single isomer, unassigned) [Example 25, 6-bromo-1-ethyl-1,3,4,9-tetrahydro-4-(phenylmethyl)-pyrano[3,4-b]indole-1-acetic acid] |  |  | ED50 [2]: 3.1 mg/kg |
| CCC1(CC(=O)O)OCC(Cc2ccccc2)c2c1[nH]c1ccc(Br)cc21 (single isomer, unassigned) [Example 26, 6-bromo-1-ethyl-1,3,4,9-tetrahydro-4-(phenylmethyl)-pyrano[3,4-b]indole-1-acetic acid] | 10 |  |  |
| C=CCC1COC(CC)(CC(=O)O)c2[nH]c3ccc(F)cc3c21 (single isomer, unassigned) [Example 27] | 24 |  |  |
| CCC1(CC(=O)O)OCC(Cc2ccccc2)c2c1[nH]c1c(C)ccc(Cl)c21 (single isomer, unassigned) [Example 29, 5-chloro-1-ethyl-1,3,4,9-tetrahydro-8-methyl-4-(phenylmethyl)-pyrano[3,4-b]indole-1-acetic acid] |  |  | ED50 [2]: 3.2 mg/kg |
| CCC1(CC(=O)O)OCC(Cc2ccccc2)c2c1[nH]c1cc(Cl)ccc21 (single isomer, unassigned) [Example 34, 7-chloro-1-ethyl-1,3,4,9-tetrahydro-4-(phenylmethyl)-pyrano[3,4-b]indole-1-acetic acid] |  |  | ED50 [2]: 1.4 mg/kg |
| CCC1(CC(=O)O)OCC(Cc2ccc(Cl)cc2)c2c1[nH]c1ccccc21 (single isomer, unassigned) [Example 40] | 47 | 60 |  |
| CCC1(CC(=O)O)OCC(Cc2ccc(OC)cc2)c2c1[nH]c1ccccc21 (single isomer, unassigned) [Example 41] | 30 |  |  |
| C=CCC1COC(CC)(CC(=O)O)c2[nH]c3c(C)c(F)ccc3c21 (single isomer, unassigned; isomer a) [Example 6, 1-Ethyl-7-fluoro-1,3,4,9-tetrahydro-8-methyl-4-(2-propenyl)pyrano[3,4-b]indole-1-acetic Acid (Isomer A)] |  |  | ED50 ([1]; Rattus norvegicus, po, 72 h, value in parentheses): 3.2 mg/kg; ED50 [2]: 18 mg/kg |
| CCC1(CC(=O)O)OCC(Cc2ccccc2)c2c1[nH]c1ccccc21 (single isomer, unassigned; isomer b) [Example 3, 1-Ethyl-1,3,4,9-tetrahydro-4-(phenylmethyl)-pyrano[3,4-b]indole-1-acetic Acid (Isomer B)] | 19 |  |  |
| CCc1cccc2c3c([nH]c12)C(CC)(CC(=O)O)OCC3Cc1ccccc1 (single isomer, unassigned; isomer b) [Example 5, 1,8-Diethyl-1,3,4,9-tetrahydro-4-(phenylmethyl-pyrano[3,4-b]indole-1-aceticAcid (Isomer B)] |  |  | Preventative Adjuvant Edema, percent inhibition [1]: 4% |
| C=CCC1COC(CC)(CC(=O)O)c2[nH]c3c(C)c(F)ccc3c21 (single isomer, unassigned; isomer b) [Example 7, 1-Ethyl-7-fluoro-1,3,4,9-tetrahydro-8-methyl-4-(2-propenyl)pyrano[3,4-b]indole-1-acetic Acid (Isomer B)] | 15 | 37 |  |
